Test results published in patent US12290596B2, “Compositions and methods for the treatment of opioid overdose” (priority 2021, dated 2025).

Assay: Three-treatment crossover pharmacokinetics of IN nalmefene, three dosing regimens (Example 13)
Settings: for half-life / AUC(0-t) / AUC(0-inf) / Cmax / Vd/F / concentration at 3 h / concentration at 4 h / concentration at 6 h / concentration at 8 h / concentration at 12 h / concentration at 18 h / concentration at 24 h / concentration at 48 h: human, plasma, other: intranasal (IN spray); for AUC(0-t) / AUC(0-inf) / Cmax / Vd/F: mean; for AUC(0-inf): AUCinf; for Vd/F: Vz/F; for concentration at 3 h / concentration at 4 h / concentration at 6 h / concentration at 8 h / concentration at 12 h / concentration at 18 h / concentration at 24 h / concentration at 48 h: T1 (3 mg IN, one spray in one nostril)
[1] = Treatment A (T1) 3 mg in one nostril
[2] = Treatment B (T2) 3 mg in each nostril (6 mg)
[3] = Treatment C (T3) 6 mg in one nostril
[4] = 3 mg, Treatment A (T1) 3 mg in one nostril
[5] = 6 mg, Treatment B (T2) 3 mg in each nostril (6 mg)
[6] = 6 mg, Treatment C (T3) 6 mg in one nostril

## C=C1CC[C@@]2(O)[C@H]3Cc4ccc(O)c5c4[C@@]2(CCN3CC2CC2)[C@H]1O5 [Nalmefene, 17-cyclopropylmethyl-4,5α-epoxy-6-methylenemorphinan-3,14-diol]
ANOVA
  Dose-normalized Cmax lower after Treatment C (T3) compared to Treatment A (T1): approximately 19%
[1]
  AUC0-2.5 min/D, mean: 0.00276 ng·h/mL/mg
  AUC0-5 min/D, mean: 0.0206 ng·h/mL/mg
  AUC0-7.5 min/D, mean: 0.0728 ng·h/mL/mg
  AUC0-10 min/D, mean: 0.160 ng·h/mL/mg
  AUC0-15 min/D, mean: 0.393 ng·h/mL/mg
  AUC0-20 min/D, mean: 0.639 ng·h/mL/mg
  AUC0-30 min/D, mean: 1.06 ng·h/mL/mg
  AUCextrap, mean: 4.22%
  CL/F, mean: 66.9 L/h
  Cmax/D, mean: 3.59 ng/mL/mg
[2]
  AUC0-2.5 min/D, mean: 0.0072 ng·h/mL/mg
  AUC0-5 min/D, mean: 0.0369 ng·h/mL/mg
  AUC0-7.5 min/D, mean: 0.106 ng·h/mL/mg
  AUC0-10 min/D, mean: 0.202 ng·h/mL/mg
  AUC0-15 min/D, mean: 0.445 ng·h/mL/mg
  AUC0-20 min/D, mean: 0.691 ng·h/mL/mg
  AUC0-30 min/D, mean: 1.08 ng·h/mL/mg
  AUCextrap, mean: 3.61%
  AUClast/D, mean: 14.4 ng·h/mL/mg
  CL/F, mean: 69.2 L/h
  Cmax/D, mean: 3.70 ng/mL/mg
[3]
  AUC0-2.5 min/D, mean: 0.00455 ng·h/mL/mg
  AUC0-5 min/D, mean: 0.0244 ng·h/mL/mg
  AUC0-7.5 min/D, mean: 0.0803 ng·h/mL/mg
  AUC0-10 min/D, mean: 0.165 ng·h/mL/mg
  AUC0-15 min/D, mean: 0.374 ng·h/mL/mg
  AUC0-20 min/D, mean: 0.588 ng·h/mL/mg
  AUC0-30 min/D, mean: 0.931 ng·h/mL/mg
  AUCextrap, mean: 4.18%
  AUClast/D, mean: 13.7 ng·h/mL/mg
  CL/F, mean: 73.3 L/h
  Cmax/D, mean: 3.15 ng/mL/mg
3 mg
  half-life: 684 min
3 mg, AUC0-5 min, Treatment A (T1) 3 mg in one nostril
  AUC(0-t): 0.0618 ng·h/mL
3 mg, AUC0-10 min, Treatment A (T1) 3 mg in one nostril
  AUC(0-t): 0.48 ng·h/mL
3 mg, AUC0-15 min, Treatment A (T1) 3 mg in one nostril
  AUC(0-t): 1.18 ng·h/mL
3 mg, AUC0-20 min, Treatment A (T1) 3 mg in one nostril
  AUC(0-t): 1.92 ng·h/mL
3 mg, AUC0-30 min, Treatment A (T1) 3 mg in one nostril
  AUC(0-t): 3.19 ng·h/mL
3 mg, AUC0-[…], Treatment A (T1) 3 mg in one nostril
  AUC(0-t): 0.219 ng·h/mL
[4]
  AUC(0-inf): 46.8 ng·h/mL
  Cmax: 10.8 ng/mL
  Vd/F: 1090 L
3 mg, AUClast, Treatment A (T1) 3 mg in one nostril
  AUC(0-t): 44.9 ng·h/mL
3 mg, Max
  concentration at 3 h: 6.01 ng/mL
  concentration at 4 h: 4.86 ng/mL
  concentration at 6 h: 3.01 ng/mL
  concentration at 8 h: 2.19 ng/mL
  concentration at 12 h: 1.51 ng/mL
  concentration at 18 h: 0.851 ng/mL
  concentration at 24 h: 0.785 ng/mL
  concentration at 48 h: 0.184 ng/mL
3 mg, Median
  concentration at 3 h: 3.51 ng/mL
  concentration at 4 h: 2.78 ng/mL
  concentration at 6 h: 2.07 ng/mL
  concentration at 8 h: 1.34 ng/mL
  concentration at 12 h: 0.985 ng/mL
  concentration at 18 h: 0.581 ng/mL
  concentration at 24 h: 0.37 ng/mL
  concentration at 48 h: 0.088 ng/mL
3 mg, Min
  concentration at 12 h: 0.727 ng/mL
  concentration at 18 h: 0.37 ng/mL
  concentration at 24 h: 0.261 ng/mL
  concentration at 48 h: 0 ng/mL
6 mg
  half-life: 678 min
6 mg, AUC0-5 min, Treatment B (T2) 3 mg in each nostril (6 mg)
  AUC(0-t): 0.222 ng·h/mL
6 mg, AUC0-5 min, Treatment C (T3) 6 mg in one nostril
  AUC(0-t): 0.146 ng·h/mL
6 mg, AUC0-10 min, Treatment B (T2) 3 mg in each nostril (6 mg)
  AUC(0-t): 1.21 ng·h/mL
6 mg, AUC0-10 min, Treatment C (T3) 6 mg in one nostril
  AUC(0-t): 0.988 ng·h/mL
6 mg, AUC0-15 min, Treatment B (T2) 3 mg in each nostril (6 mg)
  AUC(0-t): 2.67 ng·h/mL
6 mg, AUC0-15 min, Treatment C (T3) 6 mg in one nostril
  AUC(0-t): 2.24 ng·h/mL
6 mg, AUC0-20 min, Treatment B (T2) 3 mg in each nostril (6 mg)
  AUC(0-t): 4.14 ng·h/mL
6 mg, AUC0-20 min, Treatment C (T3) 6 mg in one nostril
  AUC(0-t): 3.53 ng·h/mL
6 mg, AUC0-30 min, Treatment B (T2) 3 mg in each nostril (6 mg)
  AUC(0-t): 6.46 ng·h/mL
6 mg, AUC0-30 min, Treatment C (T3) 6 mg in one nostril
  AUC(0-t): 5.58 ng·h/mL
[5]
  AUC(0-inf): 89.5 ng·h/mL
  Cmax: 22.2 ng/mL
  Vd/F: 1120 L
[6]
  AUC(0-inf): 85.7 ng·h/mL
  Vd/F: 1190 L
6 mg, AUClast, Treatment B (T2) 3 mg in each nostril (6 mg)
  AUC(0-t): 86.2 ng·h/mL
6 mg, AUClast, Treatment C (T3) 6 mg in one nostril
  AUC(0-t): 82.1 ng·h/mL
